Broadly, the GI50 is the concentration giving 50% growth inhibition. Higher therefore signals lower sensitivity of the cells.

The test concerns A498. Description: Cytotoxicity against Homo sapiens (human) A498 cells after 48 hr by sulforhodamine B assay. The test is classed as functional. Conditions: A498, 48 h. On the technique in general: In SRB staining, fixed cells bind dye roughly in proportion to their protein.

As for `O=C(c1ccc(O)cc1)n1nc(-c2c(Cl)cccc2Cl)sc1=S`, the GI50 was 2.34 µM. The CC50 (read-out: pLC50 (the source's name) (converted)) is 53.7 µM. For the same compound, the TGI (read-out: pTGI (converted)) is 17 µM.

The values are drawn from ChEMBL document CHEMBL3046521, “Synthesis and antitumor activity of (4-hydroxyphenyl)[5-substituted alkyl/aryl)-2-thioxo-1,3,4-thiadiazol-3-yl]methanone and [(3,4-disubstituted)-1,3-thiazol-2ylidene]-4-hydroxybenzohydrazide” (2011).
